Here are results for 24 molecules from PubChem BioAssay AID330 (DTP/NCI, 2004).

Where “and” joins values, the source holds several entries; their conditions need not be identical. Equal entries are not always repeated. Inconclusive results and toxic doses are left out.

The test system of this assay is P388 leukemia ip, CD2F1 mice, survival T/C. Briefly: NCI In Vivo Anticancer Drug Screen. Data for tumor model P388 Leukemia (intraperitoneal) in CD2F1 (CDF1) mice. Particulars: endpoint: median survival time, higher = longer survival. Summed up: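 Mice carrying the transplanted tumor received test compound or vehicle. Survival was recorded in each group, and the value is the treated-group measurement divided by that of the vehicle-treated control group.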

Where [1] appears, read: dose: 50.0 mg/kg/injection, schedule: Q01DX005 (ip), vehicle: saline with Tween-80.
The mark [2] stands for this setting: dose: 100.0 mg/kg/injection, schedule: Q01DX005 (ip), vehicle: saline with Tween-80.
Setting [3] is: dose: 200.0 mg/kg/injection, schedule: Q01DX005 (ip), vehicle: saline with Tween-80.
Where [4] appears, read: dose: 100.0 mg/kg/injection, schedule: Q01DX001 (ip), vehicle: saline.
Where [5] appears, read: dose: 200.0 mg/kg/injection, schedule: Q01DX001 (ip), vehicle: saline.
[6] abbreviates: dose: 400.0 mg/kg/injection, schedule: Q01DX001 (ip), vehicle: saline.
[7] abbreviates: dose: 50.0 mg/kg/injection, schedule: Q01DX009 (ip), vehicle: saline with Tween-80.
Setting [8] is: dose: 100.0 mg/kg/injection, schedule: Q01DX009 (ip), vehicle: saline with Tween-80.
The mark [9] stands for this setting: dose: 200.0 mg/kg/injection, schedule: Q01DX009 (ip), vehicle: saline with Tween-80.
The mark [10] stands for this setting: dose: 12.5 mg/kg/injection, schedule: Q01DX009 (ip), vehicle: Klucel (hydroxypropylcellulose) (HPC).
Where [11] appears, read: dose: 100.0 mg/kg/injection, schedule: Q04DX003 (ip), vehicle: saline with Tween-80.
Setting [12] is: dose: 200.0 mg/kg/injection, schedule: Q04DX003 (ip), vehicle: saline with Tween-80.
Setting [13] is: dose: 400.0 mg/kg/injection, schedule: Q01DX009 (ip), vehicle: saline with Tween-80.
[14] abbreviates: dose: 400.0 mg/kg/injection, schedule: Q04DX003 (ip), vehicle: saline with Tween-80.
Where [15] appears, read: dose: 60.0 mg/kg/injection, schedule: Q01DX005 (ip), vehicle: saline.
Where [16] appears, read: dose: 120.0 mg/kg/injection, schedule: Q01DX005 (ip), vehicle: saline.
The mark [17] stands for this setting: dose: 240.0 mg/kg/injection, schedule: Q01DX005 (ip), vehicle: saline.

`NC(Cc1ccc[se]1)C(=O)O` (stereo not drawn): the T/C reads like this: (dose: 6.25 mg/kg/injection, schedule: Q01DX005 (ip), vehicle: saline) 105 % of control; (dose: 12.5 mg/kg/injection, schedule: Q01DX005 (ip), vehicle: saline) 99 % of control; (dose: 25.0 mg/kg/injection, schedule: Q01DX005 (ip), vehicle: saline with Tween-80) 103 % of control; (dose: 25.0 mg/kg/injection, schedule: Q01DX005 (ip), vehicle: saline) 97 % of control; under setting [1], 94 % of control.

Take `CNC(=O)NC(c1cc(OC)c(OC)c(OC)c1)c1cc2c(cc1O)OCO2` (stereo not drawn): the T/C (dose: 30.0 mg/kg/injection, schedule: Q01DX005 (ip), vehicle: Klucel (hydroxypropylcellulose) (HPC)) was 89 % of control; the T/C (dose: 60.0 mg/kg/injection, schedule: Q01DX005 (ip), vehicle: Klucel (hydroxypropylcellulose) (HPC)) is 87 % of control and 92 % of control; the T/C (dose: 240.0 mg/kg/injection, schedule: Q01DX005 (ip), vehicle: Klucel (hydroxypropylcellulose) (HPC)) was 87 % of control.

As to `O=C(Nc1ccc(Sc2ccc(N=Nc3c(O)c(S(=O)(=O)O)cc4cc(S(=O)(=O)O)ccc34)cc2)cc1)c1ccc(N=Nc2cc(S(=O)(=O)O)c3ccccc3c2O)cc1`, the T/C is, setting by setting: under setting [1], 98 % of control; under setting [2], 102 % of control; under setting [3], 98 % of control.

Consider `COC(=O)CCCCCCCCCCCCC1C=CCC1` (stereo not drawn), for which the T/C by setting is: under setting [4], 100 % of control; under setting [5], 104 % of control; under setting [6], 104 % of control.

In the case of `CC(C)=NOC1CCCCC1OS(=O)(=O)c1ccc(C)cc1` (stereo not drawn), the T/C is, setting by setting: under setting [7], 94 % of control; under setting [8], 95 % of control; under setting [9], 110 % of control.

Consider `C=CCn1c(=S)sc2ccccc21`, for which the T/C was 105 % of control (dose: 6.25 mg/kg/injection, schedule: Q01DX009 (ip), vehicle: Klucel (hydroxypropylcellulose) (HPC)); 105 % of control under setting [10]; 104 % of control (dose: 25.0 mg/kg/injection, schedule: Q01DX009 (ip), vehicle: Klucel (hydroxypropylcellulose) (HPC)).

For the molecule `c1ccc(CCN2CCC3(CC2)COCc2ccccc23)cc1`, the T/C (dose: 100.0 mg/kg/injection, schedule: Q01DX001 (ip), vehicle: saline with Tween-80) was 96 % of control.

Turning to `C/C(=N/OC1=CC(=O)CC(C)(C)C1)c1ccccc1`, the T/C under setting [1] is 104 % of control, the T/C under setting [2] is 104 % of control and the T/C under setting [3] was 99 % of control.

On to `O=S(=O)(O)c1ccc2nccn2c1`, for which the T/C was 100 % of control (dose: 100.0 mg/kg/injection, schedule: Q01DX001 (ip), vehicle: suspension in saline); 89 % of control (dose: 200.0 mg/kg/injection, schedule: Q01DX001 (ip), vehicle: suspension in saline); 100 % of control (dose: 400.0 mg/kg/injection, schedule: Q01DX001 (ip), vehicle: suspension in saline).

Consider `CCN(CC)Cc1c(O)c(N=Nc2cccc3ccccc23)cc2ccccc12`, for which the T/C (dose: 3.0 mg/kg/injection, schedule: Q01DX009 (ip), vehicle: Klucel (hydroxypropylcellulose) (HPC)) is 111 % of control; the T/C (dose: 6.0 mg/kg/injection, schedule: Q01DX009 (ip), vehicle: Klucel (hydroxypropylcellulose) (HPC)) is 107 % of control; the T/C (dose: 12.0 mg/kg/injection, schedule: Q01DX009 (ip), vehicle: Klucel (hydroxypropylcellulose) (HPC)) is 104 % of control; the T/C under setting [10] was 113 % of control.

Take `COc1ccc(Br)cc1/C=N\NS(=O)(=O)c1ccc(C)cc1`: the T/C runs as follows: under setting [8], 104 % of control; under setting [11], 116 % of control; under setting [9], 109 % of control; under setting [12], 100 % of control; under setting [13], 122 % of control; under setting [14], 108 % of control.

Take `COC(=O)/C(Br)=C/N(Cc1ccccc1)Cc1ccccc1`: the T/C is 110 % of control under setting [8]; 95 % of control under setting [11]; 100 % of control under setting [9]; 95 % of control under setting [12]; 110 % of control under setting [13]; 95 % of control under setting [14].

`CN(CCN1C(=O)c2cccc3cc([N+](=O)[O-])cc(c23)C1=O)CCN1C(=O)c2cccc3cc([N+](=O)[O-])cc(c23)C1=O`: the T/C runs as follows: under setting [1], 98 % of control; under setting [2], 97 % of control; under setting [3], 114 % of control.

As to `CC(=O)NC1C(OC(C)=O)OC(C[Se][As](C)C)C(OC(C)=O)C1OC(C)=O` (stereo not drawn), the T/C reads like this: (dose: 50.0 mg/kg/injection, schedule: Q01DX009 (ip), vehicle: Klucel (hydroxypropylcellulose) (HPC)) 105 % of control; (dose: 100.0 mg/kg/injection, schedule: Q01DX009 (ip), vehicle: Klucel (hydroxypropylcellulose) (HPC)) 110 % of control.

In the case of `CCOC(=O)CCC(C(=O)c1cccnc1)c1ccccn1` (stereo not drawn), the T/C by setting is: under setting [4], 104 % of control; under setting [5], 101 % of control; under setting [6], 99 % of control.

Consider `CC(=O)/C(=C\c1cccs1)C(=O)CCN(C)C`, for which the T/C by setting is: under setting [15], 106 % of control and 111 % of control; under setting [16], 113 % of control and 122 % of control; under setting [17], 91 % of control.

With `O=C(n1ccnc1)C(F)(F)C(F)(F)F`, the T/C is 95 % of control under setting [15], 101 % of control under setting [16] and 96 % of control under setting [17].

`COc1ccc(/C=N\NC(=O)CNC(=O)Nc2cccc(C(F)(F)F)c2)cc1OC`: the T/C (dose: 3.13 mg/kg/injection, schedule: Q01DX009 (ip), vehicle: saline with Tween-80) was 112 % of control; the T/C (dose: 6.25 mg/kg/injection, schedule: Q01DX009 (ip), vehicle: saline with Tween-80) was 108 % of control; the T/C (dose: 12.5 mg/kg/injection, schedule: Q01DX009 (ip), vehicle: saline with Tween-80) is 91 % of control.

Regarding `CC(C)(C)OC(=O)NCCCCC(NC(=O)OC(C)(C)C)C(=O)O` (stereo not drawn), the T/C runs as follows: under setting [7], 102 % of control; under setting [8], 101 % of control; under setting [9], 92 % of control.

As to `N#Cc1c(-c2ccccc2)c(-c2ccccc2)nn(CCO)c1=O`, the T/C by setting is: (dose: 25.0 mg/kg/injection, schedule: Q04DX002 (ip), vehicle: distilled water + Tween-80) 94 % of control; (dose: 50.0 mg/kg/injection, schedule: Q04DX002 (ip), vehicle: distilled water + Tween-80) 103 % of control; (dose: 100.0 mg/kg/injection, schedule: Q04DX002 (ip), vehicle: distilled water + Tween-80) 108 % of control; (dose: 200.0 mg/kg/injection, schedule: Q04DX002 (ip), vehicle: distilled water + Tween-80) 110 % of control.

For `O=C1c2cccc3cc([N+](=O)[O-])cc(c23)C(=O)N1CCCNCCNCCCN1C(=O)c2cccc3cc([N+](=O)[O-])cc(c23)C1=O`, the T/C under setting [1] is 92 % of control and the T/C under setting [2] was 154 % of control.

As for `O=C(O)CNC(=O)C(Cl)Cl`, the T/C reads like this: (dose: 50.0 mg/kg/injection, schedule: Q01DX005 (ip), vehicle: saline) 100 % of control; (dose: 100.0 mg/kg/injection, schedule: Q01DX005 (ip), vehicle: saline) 100 % of control; (dose: 200.0 mg/kg/injection, schedule: Q01DX005 (ip), vehicle: saline) 90 % of control.

As to `CC1CCC(c2ccccc2)(c2ccccc2)C1=O` (stereo not drawn), the T/C is 96 % of control (dose: 100.0 mg/kg/injection, schedule: Q01DX001 (ip), vehicle: Klucel (hydroxypropylcellulose) (HPC)); 100 % of control (dose: 200.0 mg/kg/injection, schedule: Q01DX001 (ip), vehicle: Klucel (hydroxypropylcellulose) (HPC)); 96 % of control (dose: 400.0 mg/kg/injection, schedule: Q01DX001 (ip), vehicle: Klucel (hydroxypropylcellulose) (HPC)).

Regarding `COC(=O)c1c(C(=O)Cc2cc3c(cc2CCN(C)C)OCO3)ccc(OC)c1OC`, the T/C is, setting by setting: (dose: 12.5 mg/kg/injection, schedule: Q01DX001 (ip), vehicle: saline + alcohol) 99 % of control; (dose: 25.0 mg/kg/injection, schedule: Q01DX001 (ip), vehicle: saline + alcohol) 100 % of control; (dose: 50.0 mg/kg/injection, schedule: Q01DX001 (ip), vehicle: saline + alcohol) 101 % of control.
